Results on eight compounds are retold here after patent US20260345717A1, “COMPOSITION FOR PREVENTING, AMELIORATING, OR TREATING ALZHEIMER'S DISEASE COMPRISING GRAPEVINE STEM EXTRACT OR COMPOUND ISOLATED THEREFROM AS EFFECTIVE COMPONENT” (KOREA INSTITUTE OF ORIENTAL MEDICINE, priority 2022, published 2026).

Data set [1] concerns gB protein of the herpes simplex virus. The data set can be described thus: gB viral protein expression in HSV-1 infected U373-MG cells, Western blot. In kind it is cell-based, herpes simplex virus (HSV-1). The note with it: 10 μM, FIG. 5B, 1080 min. In general terms: A western blot detects proteins with antibodies after separation by electrophoresis.
The test system of data set [2] is U373-MG cells infected with herpes simplex virus (HSV-1). The data set can be described thus: Cell survival of HSV-1 infected U373-MG cells, MTT assay. It counts as cell-based, human. As to conditions: compared to untreated group (control), FIG. 5A; for viability at 10 µM: Homo sapiens, 18 h, read-out: cell survival rate. As to the method: (§1) U373-MG cells, a human-derived glioblastoma, were cultured in RPMI1640 medium supplemented with 10% FBS (Fetal bovine serum) and 1% penicillin/streptomycin. After culturing, the cells were infected with herpes simplex virus (HSV-1, 0.1 MOI) in RPMI1640 medium supplemented with 1% penicillin/streptomycin. After 2 hours, the infection solution was removed. After washing with PBS, the cells were treated for 18 hours with a sample in RPMI1640 supplemented with 10% FBS and 1% penicillin/streptomycin. […] Cell survival rate was expressed as cell survival rate compared to the untreated group (control).
In general terms: Formazan colour is commonly taken as a measure of viable cells.

In data set [3] the test system is herpes simplex virus (HSV-1) in Vero cells. The data set can be described thus: Antiviral effect: HSV-1 (GFP) infection of Vero cells, flow cytometry. It counts as cell-based. The note with it: for inhibition at 10 µM / inhibition at 5 µM: Human alphaherpesvirus 1, Vero, 18 h, read-out: inhibition rate of virus replication; for antiviral effect compared with other components of the extract: FIG. 2. The method, then:
Vero cells were cultured in DMEM medium supplemented with 10% fetal bovine serum (FBS) and 1% penicillin/streptomycin. After culturing, the cells were infected with herpes simplex virus (HSV-1, 0.1 MOI) for 2 hours in DMEM medium supplemented with 1% penicillin/streptomycin. The infection solution was removed, the cells were washed with PBS and then treated with the samples from Preparation example 1 at different concentrations in DMEM supplemented with 10% FBS and 1% penicillin/streptomycin. The cells were subsequently cultured for 18 hours. Afterwards, the cells were recovered, fixed with 4% paraformaldehyde, washed with PBS, and GFP of the virus was quantified using flow cytometry. The cell infection rate was expressed as the infection rate compared to the group (Virus) that had not been treated with any sample.
In addition, the antiviral effect of the components contained in the grapevine stem extract obtained in Preparation example 2, i.e., vitisin A, &-viniferin, caraphenol A, betuin, cis-vitisin A, ampelopsin A, lupeol, vitisin B, malibatol A, viniferether B, lupenone, and resveratrol, was also determined by conducting experiments in the same manner as above.
Background: In flow cytometry, cells or beads pass a laser one at a time.

A further data set concerns amyloid beta (Aβ1-42). The experiment in a line: Amyloid beta (Aβ1-42) expression in HSV-1 infected U373-MG cells, Western blot. As to conditions: 10 μM, FIGS. 10A and 10B. In kind it is cell-based, human. The method, then:
as §1
(§2) The experiment was conducted in the same manner as the cell experiment in Example 3, but vitisin A, cis-vitisin A, and vitisin B isolated from grapevine stem extract were treated as test samples, and cell proteins were isolated to determine the expression of proteins that are related to dementia.

In the next data set the test system is tau protein (p-tau). The data set can be described thus: Phosphorylation of tau protein (p-tau) in HSV-1 infected U373-MG cells, Western blot. It counts as cell-based, human. The note with it: 10 μM, FIGS. 10A and 10B. The method, then: as §1, §2
In data set [4] the test system is herpes simplex virus protein ICP27. The data set can be described thus: ICP27 viral protein expression in HSV-1 infected U373-MG cells. In kind it is cell-based, herpes simplex virus (HSV-1). As to conditions: concentration not restated.
For data set [5], the system named is herpes simplex virus protein VP16. The data set can be described thus: VP16 viral protein expression in HSV-1 infected U373-MG cells. In kind it is cell-based, herpes simplex virus (HSV-1). As to conditions: concentration not restated.

For the compound cis-vitisin A, the “reduction of gB protein compared to the virus-infected group” value (“reduction of gB protein” below) in data set [1] was 27%. Also, in data set [2] (10 μM, 1080 min), the cell survival rate was 84%.

The term inhibition denotes the percentage by which the read-out fell short of the control. For `C=C(C)[C@@H]1CC[C@]2(C)CC[C@]3(C)[C@H](CC[C@@H]4[C@@]5(C)CC[C@H](O)C(C)(C)[C@@H]5CC[C@]43C)[C@@H]12` (single isomer, unassigned) [lupeol], in data set [3], the inhibition at 10 µM turned out to be 59%.

As for `Oc1ccc([C@H]2c3c(O)cc(O)cc3[C@H]3c4c(cc(O)cc4[C@@H]2O)O[C@@H]3c2ccc(O)cc2)cc1` [amphelopsin A, ampelopsin A], the inhibition at 10 µM in data set [3] came to 54%.

With `Oc1ccc(-c2oc3cc(O)cc4c3c2-c2cc(O)cc3c2[C@H](c2cc(O)cc5c2[C@@H]4[C@H](c2ccc(O)cc2)O5)[C@@H](c2ccc(O)cc2)O3)cc1` [caraphenol A], the inhibition at 10 µM in data set [3] is 41%.

On to `Oc1ccc([C@H]2Oc3cc(O)cc(/C=C/c4ccc5c(c4)[C@@H](c4cc(O)cc6c4[C@H](c4cc(O)cc(O)c4)[C@@H](c4ccc(O)cc4)O6)[C@H](c4ccc(O)cc4)O5)c3[C@@H]2c2cc(O)cc(O)c2)cc1` [vitisin B], for which, in data set [3], the inhibition at 5 µM came to 80% and the inhibition at 10 µM is 76%. For the same compound, the “antiviral effect compared with other components of the extract” value in data set [3] (Vero cells) was “best antiviral effect”. Further, the “reduction of gB protein” value in data set [1] is listed as 66%. Also, the viability at 10 µM in data set [2] amounted to 76%.

For `Oc1ccc([C@H]2c3c(O)cc(O)cc3[C@H]3c4c(cc(O)cc4[C@@H]2c2cc(/C=C/c4cc(O)cc5c4[C@H](c4cc(O)cc(O)c4)[C@@H](c4ccc(O)cc4)O5)ccc2O)O[C@@H]3c2ccc(O)cc2)cc1` [vitisin A], the “expression of amyloid beta (Aβ1-42) compared to the virus-infected group” value in the data set with amyloid beta (Aβ1-42) is “significantly reduced”. Moreover, in the data set with tau protein (p-tau), the “phosphorylation of tau protein (p-tau) compared to the virus-infected group” value was “significantly reduced”. In data set [3], the inhibition at 5 µM turned out to be 80% and the inhibition at 10 µM amounted to 96%. Also, the “antiviral effect compared with other components of the extract” value in data set [3] (Vero cells) is “best antiviral effect”. For the same compound, the “reduction of gB protein” value in data set [1] is 99%. In addition, in data set [4], the “inhibition rate against ICP27 compared to the virus-infected group” value worked out at 93%. The viability at 10 µM in data set [2] stood at 87%. Further, in data set [5], the “inhibition rate against VP16 compared to the virus-infected group” value is on record as 100%.

Consider `Oc1ccc(/C=C/c2cc(O)cc3c2C(c2cc(O)cc(O)c2)C(c2ccc(O)cc2)O3)cc1` (stereo not drawn) [ε-viniferin], for which the inhibition at 10 µM in data set [3] is 42%.

Take `Oc1ccc(C=Cc2cc(O)cc(O)c2)cc1` (single isomer, unassigned) [Resveratrol, resveratrol]: the “inhibition of viral infection” value in data set [3] (Vero cells, HSV-1 0.1 MOI, 18 hours, concentration not restated in this sentence) was 67%.
